In patent publication US12023311B2, “Delayed release pharmaceutical formulations comprising valproic acid, and uses thereof” (Cereno Scientific AB, priority 2016, dated 2024):
Like-named read-outs stand apart in the source and are kept apart here.

Assays:
PAI-1 [1] = experiment: Proof-of-concept study in patients with a history of myocardial infarction: plasma PAI-1 before and after valproic acid; assay type: in vivo, human; conditions: midmorning, p=0.01; for reduction in circulating plasma PAI-1 levels: 16 male patients aged 50-80 with history of myocardial infarction, valproic acid 500 mg (Ergenyl Retard, Sanofi) twice daily 28 days on top of ordinary prescription
Method: (§1) The effects of VPA on PAI-1 were analysed in two different proof-of-concept studies in healthy subjects as well as in patients with manifest atherosclerotic disease. […] PAI-1 plasma levels were measured in the morning at the first day of the study as well as at the end of the treatment period with VPA (see example 2 for details on the PAI-1 analysis).
In the second study, 16 non-smoking white male patients, aged 50-80 years with a history of a myocardial infarction were included. On top of their ordinary prescription (beta-blocker, ACE-inhibitor, statin, aspirin) they were treated with valproic acid 500 mg (Ergenyl Retard, Sanofi), twice daily during 28 days.

PAI-1 [2] = experiment: Intermediate endpoint study in patients with TIA/minor stroke: plasma PAI-1 levels; assay type: in vivo, human; conditions: 20 patients with TIA/minor stroke; 400 mg valproic acid enteric-coated tablet with delayed absorption, once daily at 11 pm for 2 weeks
Method: (§2) An intermediate endpoint proof-of-concept study is performed in patients with TIA/minor stroke investigated before and after treatment with Valproic acid. Valproic acid is administrated as an enteric-coated tablet with delayed absorption.
(§3) The study comprises 20 patients with TIA/minor stroke. Patients are investigated before and after oral treatment with 400 mg valproic acid once time daily at 11 pm for 2 weeks. Plasma PAI-1 levels and plasma concentrations of valproic acid is followed daily during the study period at the following time-points: 3 am, 6 am, 10 am, 16 pm, 22 pm PAI-1 levels are measured by commercially available ELISA-kits (Coaliza PA-1, Chromogenix AB) and the plasma concentration of valproic acid an metabolites thereof is analyzed according to clinical routine at the Sahlgrenska University laboratory, Gothenburg, Sweden.

PAI-1 [3] = conditions: cultured endothelial cells; no decrease of PAI-1 mRNA levels after VPA treatment; slight but significant; cited from earlier work
[4] = Intermediate endpoint study in patients with TIA/minor stroke: plasma concentration of valproic acid; assay type: in vivo, human; conditions: 400 mg enteric-coated tablet with delayed absorption, oral, once daily at 11 pm, clock time
Method: as §2, §3

PAI-1 [5] = conditions: in vivo model in mouse (Larsson, Alwis et al. 2016); cited from earlier work
PAI-1 [6] = experiment: Proof-of-concept study in healthy subjects: plasma PAI-1 before and after valproic acid; assay type: in vivo, human; conditions: p<0.05
Method: as §1
In the first study, 10 healthy non-smoking white male subjects (with mean BMI of approximately 26), aged 50-70 years were included and treated with valproic acid 500 mg (Ergenyl Retard. Sanofi) twice daily during 14 days.

PAI-1 [7] = conditions: in vivo model in pig (Svennerholm et al. 2014); cited from earlier work

CCCC(CCC)C(=O)O [valproic acid, 2-propylpentanoic acid]
reduction in circulating plasma PAI-1 levels (PAI-1 [1]): 45% | reduction in circulating plasma PAI-1 levels (PAI-1 [1]; listed as VPA): about 45% | circulating plasma PAI-1 level after treatment (PAI-1 [1]; patients with history of myocardial infarction, 500 mg (Ergenyl Retard) twice daily 28 days, from 19.6 ng/ml before treatment): 11 ng/mL | plasma PAI-1 levels lowered after the treatment (PAI-1 [2]): approximately 30% | increase in PAI-1 production (PAI-1 [3]): 30% | time of peak plasma concentration of valproic acid [4]: peak between 3 am and 6 am | effects on plasma PAI-1 (PAI-1 [5]): did not detect any effects | reduction in circulating plasma PAI-1 levels (PAI-1 [6]; 10 healthy non-smoking male subjects aged 50-70, valproic acid 500 mg (Ergenyl Retard, Sanofi) twice daily 14 days, mid-morning vs before treatment): more than 50% | circulating plasma PAI-1 level after treatment (PAI-1 [6]; healthy male subjects, 500 mg (Ergenyl Retard) twice daily 14 days, mid-morning, from 22.2 ng/ml before treatment): 10.8 ng/mL | effects on plasma PAI-1 (PAI-1 [7]): did not detect any effects
